# Reference: US6034113A, “Derivatives of 1,3,4-oxadiazolone” (Bristol-Myers Squibb Company, priority 1999, dated 2000)
# Legend:
# [1] = system: non-BK native currents in the oocytes; assay: Effect on non-BK native currents (IBTX-insensitive) in oocytes; format: cell-based, Xenopus; details: at the tested concentration; current remaining in presence of 50 nM IBTX
# Procedure: (§1) The ability of the compound of Example 1 to open BK channels and increase whole-cell outward (K^+) BK-mediated currents was assessed under voltage-clamp conditions by determining their ability to increase cloned mammalian (mSlo or hSlo) BK--mediated outward current heterologously expressed in Xenopus oocytes [Butler, A., et al., Science, 261, pp. 221-224 (1993); and Dworetzky, S. I., et al., Mol. Brain Res., 27, pp.189-193 (1994)]. The two BK constructs employed represent nearly structurally identical homologous proteins, and have proven to be pharmacologically identical in our tests. To isolate BK current from native (background, non-BK) current, the specific and potent BK channel-blocking toxin iberiotoxin (IBTX) [Galvez, A., et al., J. Biol. Chem, 265, pp. 11083-11090 (1990)] was employed at a supramaximal concentration (50 nM). The relative contribution of BK channels current to total outward current was determined by subtraction of the current remaining in the presence of IBTX (non-BK current) from the current profiles obtained in all other experimental conditions (control, drug, and wash). […]
# [2] = system: cloned mammalian (mSlo or hSlo) BK; assay: BK-mediated outward current, two-electrode voltage clamp in Xenopus oocytes; format: cell-based; details: 1 μM; at least 5 oocytes; mSlo or hSlo expressed in Xenopus oocytes
# Procedure: as §1
# [3] = Rapid screen of prodrug hydrolysis and drug release in plasma; format: in vitro ADME; details: 10 ug/mL in fresh rat plasma at 37° C.; stock 1 mg/mL in PEG-400; analysis 5 minutes after incubation
# Procedure: A rapid screen to determine the ability of prodrugs to hydrolyze and release the drug (compound of Example 1) is conducted as follows. A 1 mg/mL stock solution of the prodrug is prepared in distilled water or acetonitrile or PEG-400. Plasma from freshly collected rat or human blood is used in this assay. To 1 mL of plasma at 37° C. was added 10 μL of stock solution of prodrug and mixed gently. Immediately after the mixing, 100 μL of plasma was removed and quenched with 300 μL of acetontrile (Zero time sample). Samples were also obtained at 30 minutes and quenched immediately. The quenched samples were centrifuged to obtain a clear supernatant for analysis. The stock solution, T=0 and T=30 samples were analyzed by a HPLC assay that separates the drug from the prodrug. Based on the relative peak areas of prodrug and drug in these samples, different prodrugs are characterized as fast, moderate and slow release agents. For example, in this model, the compound of Example 13 was dissolved in PEG-400 at a concentration of 1 mg/mL and incubated at 10 ug/mL in fresh rat plasma at 37° C.
# [4] = system: focal cerebral ischemia in the Wistar rat; assay: Focal stroke model, permanent MCA/CCA occlusion; format: in vivo; details: 1 mg/kg intravenously, single bolus two hours after MCA occlusion; measured 24 hours after MCAO; vs vehicle-treated (water) control
# Procedure: To determine the ability of the compounds of the present invention to reduce cell loss resulting from neuronal ischemia, a standard focal cerebral ischemia is induced by permanent occlusion of the left middle cerebral artery (MCA) and common carotid artery (CCA) with one hour occlusion of the right CCA in the Wistar rat. The surgeries are performed using the sub-temporal approach of A. Tamura, et al., J. Cereb. Blood Flow Metab., 1, pp. 53-60, (1981) and its modifications [K. Osbome, et al., J. Neurol Neurosurg. Psychiatry, 50, pp. 402-410 (1987) and S. Menzies, et al., Neurosurgery, 31, pp. 100-107, (1992).]
# The compound of Example 13 was evaluated in the focal stroke model involving permanent occlusion of the left MCA (MCAO) and CCA (CCAO) and temporary occlusion of the right CCA in the Wistar rat. This procedure results in a reliably large neocortical infarct volume that is measured by means of vital dye exclusion in serial slices through the brain 24 hours after MCAO. In the present test, compounds were administered using an i.v. or i.p. route of administration two hours after occlusion.
SMILES,effect on non-BK native currents in the oocytes [1],"increase of BK current, % of control of IBTX-sensitive current [2] [%]",conversion of prodrug to the compound of Example 1 in plasma [3],reduction of cortical infarct volume [4]
"O=c1oc(-c2ccc(C(F)(F)F)cc2)nn1Cc1cc(Cl)ccc1O [Example 1, 3-[(5-Chloro-2-hydroxyphenyl)methyl]-5-[4-(trifluoromethyl)phenyl]-1,3,4-oxadiazol-2(3H)-one]",did not effect non-BK native currents,126,,
"C[N+](C)(C)CCCC(=O)OCOc1ccc(Cl)cc1Cn1nc(-c2ccc(C(F)(F)F)cc2)oc1=O [Example 13, 3-[[[[4-Chloro-2-[[5-[4-(trifluoromethyl)phenyl]-2,3-dihydro-2-oxo-1,3,4oxadiazol-3-yl]methyl]phenoxy]methoxy]carbonyl]propyl]trimethylammonium methanesulfonate]",,,conversion of the compound of Example 13 to the compound of Example 1,about 17%
